# Laboratory results: patent US11649255B2, “Indazoles as hematopoietic progenitor kinase 1 (HPK1) inhibitors and methods using same” (1st Biotherapeutics, Inc., priority 2020, dated 2023)
# Like-named read-outs stand apart in the source and are kept apart here.
# Tests used:
# [1] = test system: human peripheral blood pan T cells; assay: IFNγ and IL-2 analysis of human peripheral pan T cells; format: cell-based; conditions: T-cell, CD3/CD28 bead stimulation, 100 nM Prostaglandin E2, 24 hr
# Method: IFNγ and IL-2 Analysis of Human Peripheral Pan T Cells
# Human peripheral blood pan T cells were purchased from STEMCELL™ Technologies Inc. Human peripheral blood pan T cells were thawed and suspended in DMEM media (10% FBS and 10 Penicillin/Streptomycin). 8×10^4 T cells were seeded in 96-well plate and incubated with various concentration of compounds and 100 nM Prostaglandin E2 for 1 hr. T cells were stimulated with Dynabeads Human T-Activator CD3/CD28 (Life Technologies) at a 1:3 cells: beads ratio. […] Data were analyzed with an MESO Quickplex SQ120 (Mesoscale Discovery).
# In Table 3, the values represent + for >1000 nM, ++ 200-1,000 nM, +++ for <200 nM and − for not determined.
# [2] = target: recombinant human HPK1 (Homo sapiens (Human), UniProt Q92918); assay: HPK1 kinase assay (ADP-Glo); format: biochemical; conditions: 25 μM ATP, MBP substrate
# Sequence of recombinant human HPK1 (Q92918 whole entry): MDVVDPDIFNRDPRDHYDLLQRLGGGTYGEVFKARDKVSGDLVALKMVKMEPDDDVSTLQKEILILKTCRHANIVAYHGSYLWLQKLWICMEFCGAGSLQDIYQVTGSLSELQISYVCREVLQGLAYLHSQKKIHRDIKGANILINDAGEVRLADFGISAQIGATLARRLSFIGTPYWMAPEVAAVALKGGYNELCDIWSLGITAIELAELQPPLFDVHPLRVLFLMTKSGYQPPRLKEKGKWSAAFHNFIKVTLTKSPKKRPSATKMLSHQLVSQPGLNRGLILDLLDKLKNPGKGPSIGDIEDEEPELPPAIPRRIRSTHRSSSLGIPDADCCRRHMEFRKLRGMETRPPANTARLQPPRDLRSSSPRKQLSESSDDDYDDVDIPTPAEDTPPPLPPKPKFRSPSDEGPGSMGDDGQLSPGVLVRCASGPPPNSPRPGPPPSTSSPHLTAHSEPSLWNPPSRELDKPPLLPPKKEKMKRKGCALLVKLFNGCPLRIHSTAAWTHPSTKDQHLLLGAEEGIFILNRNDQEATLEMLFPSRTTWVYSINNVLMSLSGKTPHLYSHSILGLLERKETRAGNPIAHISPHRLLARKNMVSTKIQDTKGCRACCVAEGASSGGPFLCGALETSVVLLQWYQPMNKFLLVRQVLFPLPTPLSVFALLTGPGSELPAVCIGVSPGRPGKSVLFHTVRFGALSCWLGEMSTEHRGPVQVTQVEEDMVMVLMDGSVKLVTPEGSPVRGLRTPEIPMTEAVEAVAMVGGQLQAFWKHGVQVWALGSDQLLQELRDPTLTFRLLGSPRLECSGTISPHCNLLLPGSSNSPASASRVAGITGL
# Summary of the method: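 Activity was read as ADP formed, detected by ADP-Glo luminescence after the reaction of 5 ng recombinant human HPK1 with MBP and ATP (stocks 0.5 μg/μl and 25 μM) for 40 min at 30 °C. Buffer was Tris pH 7.5 with MgCl2, BSA and DTT, with compound in 0.5% DMSO. IC50 came from inhibition curves.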
# [3] = IFNγ secretion, read-out: IFNγ (EC50)
# [4] = IL-2 secretion, read-out: IL-2 (EC50)
SMILES,"EC50 [1, 3] [nM]","EC50 [1, 4] [nM]",IC50 [2] [nM]
"CC(C)Nc1c(F)c(Cl)c(-c2ccc3nc(NC(=O)[C@@H]4C[C@@H]4F)cn3c2)c2cn[nH]c12 [Example 359, (1S,2S)-N-(6-(5-chloro-6-fluoro-7-(isopropylamino)-1H-indazol-4-yl)imidazo[1,2-a]pyridin-2-yl)-2-fluorocyclopropane-1-carboxamide]",200 to 1000,200 to 1000,< 100
"CN(c1c(F)c(Cl)c(-c2ccc3nc(NC(=O)[C@@H]4C[C@@H]4F)cn3c2)c2cn[nH]c12)C1CC1 [Example 361, (1S,2S)-N-(6-(5-chloro-7-(cyclopropyl(methyl)amino)-6-fluoro-1H-indazol-4-yl)imidazo[1,2-a]pyridin-2-yl)-2-fluorocyclopropane-1-carboxamide]",200 to 1000,> 1000,< 100
"CN(c1c(F)c(Cl)c(-c2ccn3nc(NC(=O)[C@@H]4C[C@@H]4F)cc3c2)c2cn[nH]c12)C1CCC(O)CC1 (stereo partly drawn) [Example 503, (1S,2S)-N-(5-(5-chloro-6-fluoro-7-((4-hydroxycyclohexyl)(methyl)amino)-1H-indazol-4-yl)pyrazolo[1,5-a]pyridin-2-yl)-2-fluorocyclopropane-1-carboxamide]",200 to 1000,–,< 100
"O=C(Nc1cc2cc(-c3c(Cl)c(F)c(SCCO)c4[nH]ncc34)ccn2n1)[C@@H]1C[C@@H]1F [Example 520, (1S,2S)-N-(5-(5-chloro-6-fluoro-7-((2-hydroxyethyl)thio)-1H-indazol-4-yl)pyrazolo[1,5-a]pyridin-2-yl)-2-fluorocyclopropane-1-carboxamide]",200 to 1000,–,< 100
"CCc1c(F)c(SCC(=O)NC)c2[nH]ncc2c1-c1ccn2nc(NC(=O)[C@@H]3C[C@@H]3F)cc2c1 [Example 521, (1S,2S)-N-(5-(5-ethyl-6-fluoro-7-((2-(methylamino)-2-oxoethyl)thio)-1H-indazol-4-yl)pyrazolo[1,5-a]pyridin-2-yl)-2-fluorocyclopropane-1-carboxamide bis(2,2,2-trifluoroacetate)]",< 200,< 200,< 100
"CCNc1c(F)c(CC)c(-c2ccn3nc(NC(=O)[C@@H]4C[C@@H]4F)cc3c2)c2cn[nH]c12 [Example 524, (1S,2S)-N-(5-(5-ethyl-7-(ethylamino)-6-fluoro-1H-indazol-4-yl)pyrazolo[1,5-a]pyridin-2-yl)-2-fluorocyclopropane-1-carboxamide]",< 200,< 200,< 100
"CCc1c(F)c(N(C)CC)c2[nH]ncc2c1-c1ccn2nc(NC(=O)[C@@H]3C[C@@H]3F)cc2c1 [Example 525, (1S,2S)-N-(5-(5-ethyl-7-(ethyl(methyl)amino)-6-fluoro-1H-indazol-4-yl)pyrazolo[1,5-a]pyridin-2-yl)-2-fluorocyclopropane-1-carboxamide]",< 200,200 to 1000,< 100
"CCOc1c(F)c(CC)c(-c2ccn3nc(NC(=O)[C@@H]4C[C@@H]4F)cc3c2)c2cn[nH]c12 [Example 531, (1S,2S)-N-(5-(7-ethoxy-5-ethyl-6-fluoro-1H-indazol-4-yl)pyrazolo[1,5-a]pyridin-2-yl)-2-fluorocyclopropane-1-carboxamide]",< 200,200 to 1000,< 100
"Cc1c(F)c(OCCO)c2[nH]ncc2c1-c1ccn2nc(NC(=O)[C@@H]3C[C@@H]3F)cc2c1 [Example 534, (1S,2S)-2-fluoro-N-(5-(6-fluoro-7-(2-hydroxyethoxy)-5-methyl-1H-indazol-4-yl)pyrazolo[1,5-a]pyridin-2-yl)cyclopropane-1-carboxamide]",< 200,–,< 100
"CC(=O)N(C)c1c(F)c(Cl)c(-c2ccn3nc(NC(=O)[C@@H]4C[C@@H]4F)cc3c2)c2cn[nH]c12 [Example 552, (1S,2S)-N-(5-(5-chloro-6-fluoro-7-(N-methylacetamido)-1H-indazol-4-yl)pyrazolo[1,5-a]pyridin-2-yl)-2-fluorocyclopropane-1-carboxamide]",200 to 1000,200 to 1000,< 100
"CN(C)C(=O)c1c(F)c(Cl)c(-c2ccn3nc(NC(=O)[C@@H]4C[C@@H]4F)cc3c2)c2cn[nH]c12 [Example 556, 5-chloro-6-fluoro-4-(2-((1S,2S)-2-fluorocyclopropane-1-carboxamido)pyrazolo[1,5-a]pyridin-5-yl)-N,N-dimethyl-1H-indazole-7-carboxamide]",< 200,200 to 1000,< 100
"Cc1c(F)c(N(C)CCO)c2[nH]ncc2c1-c1ccn2nc(NC(=O)[C@@H]3C[C@@H]3F)cc2c1 [Example 557, (1S,2S)-2-fluoro-N-(5-(6-fluoro-7-((2-hydroxyethyl)(methyl)amino)-5-methyl-1H-indazol-4-yl)pyrazolo[1,5-a]pyridin-2-yl)cyclopropane-1-carboxamide]",< 200,200 to 1000,< 100
"CN(c1c(F)c(Cl)c(-c2ccn3nc(NC(=O)[C@@H]4C[C@@H]4F)cc3c2)c2cn[nH]c12)C1CC(O)C1 (stereo partly drawn) [Example 561, (1S,2S)-N-(5-(5-chloro-6-fluoro-7-((3-hydroxycyclobutyl)(methyl)amino)-1H-indazol-4-yl)pyrazolo[1,5-a]pyridin-2-yl)-2-fluorocyclopropane-1-carboxamide]",200 to 1000,200 to 1000,< 100

# Next, values leading:
"EC50 [1, 3] [nM]","EC50 [1, 4] [nM]",IC50 [2] [nM],SMILES
< 200,200 to 1000,< 100,"CN(C)c1c(F)c(Cl)c(-c2ccn3nc(NC(=O)[C@@H]4C[C@@H]4F)cc3c2)c2cn[nH]c12 [Example 484, (1S,2S)-N-(5-(5-chloro-7-(dimethylamino)-6-fluoro-1H-indazol-4-yl)pyrazolo[1,5-a]pyridin-2-yl)-2-fluorocyclopropane-1-carboxamide]"
200 to 1000,–,< 100,"CSc1c(F)c(C)c(-c2ccn3nc(NC(=O)[C@@H]4C[C@@H]4F)cc3c2)c2cn[nH]c12 [Example 488, (1S,2S)-2-fluoro-N-(5-(6-fluoro-5-methyl-7-(methylthio)-1H-indazol-4-yl)pyrazolo[1,5-a]pyridin-2-yl)cyclopropane-1-carboxamide]"
< 200,200 to 1000,< 100,"CCOc1c(F)c(C)c(-c2ccn3nc(NC(=O)[C@@H]4C[C@@H]4F)cc3c2)c2cn[nH]c12 [Example 509, (1S,2S)-N-(5-(7-ethoxy-6-fluoro-5-methyl-1H-indazol-4-yl)pyrazolo[1,5-a]pyridin-2-yl)-2-fluorocyclopropane-1-carboxamide]"
< 200,–,< 100,"Cc1c(F)c(SCCO)c2[nH]ncc2c1-c1ccn2nc(NC(=O)[C@@H]3C[C@@H]3F)cc2c1 [Example 523, (1S,2S)-2-fluoro-N-(5-(6-fluoro-7-((2-hydroxyethyl)thio)-5-methyl-1H-indazol-4-yl)pyrazolo[1,5-a]pyridin-2-yl)cyclopropane-1-carboxamide]"
< 200,< 200,< 100,"CSc1c(F)c(SC)c2[nH]ncc2c1-c1ccn2nc(NC(=O)[C@@H]3C[C@@H]3F)cc2c1 [Example 529, (1S,2S)-2-fluoro-N-(5-(6-fluoro-5,7-bis(methylthio)-1H-indazol-4-yl)pyrazolo[1,5-a]pyridin-2-yl)cyclopropane-1-carboxamide]"
200 to 1000,200 to 1000,< 100,"CSc1c(F)cc2[nH]ncc2c1-c1ccn2nc(NC(=O)[C@@H]3C[C@@H]3F)cc2c1 [Example 530, (1S,2S)-2-fluoro-N-(5-(6-fluoro-5-(methylthio)-1H-indazol-4-yl)pyrazolo[1,5-a]pyridin-2-yl)cyclopropane-1-carboxamide]"
200 to 1000,–,< 100,"CCc1c(F)c(F)c2[nH]ncc2c1-c1ccn2nc(NC(=O)[C@@H]3C[C@@H]3F)cc2c1 [Example 532, (1S,2S)-N-(5-(5-ethyl-6,7-difluoro-1H-indazol-4-yl)pyrazolo[1,5-a]pyridin-2-yl)-2-fluorocyclopropane-1-carboxamide]"
200 to 1000,–,< 100,"CSc1c(F)c(F)c2[nH]ncc2c1-c1ccn2nc(NC(=O)[C@@H]3C[C@@H]3F)cc2c1 [Example 541, (1S,2S)-N-(5-(6,7-difluoro-5-(methylthio)-1H-indazol-4-yl)pyrazolo[1,5-a]pyridin-2-yl)-2-fluorocyclopropane-1-carboxamide]"
< 200,200 to 1000,< 100,"CCOc1c(F)c(SC)c(-c2ccn3nc(NC(=O)[C@@H]4C[C@@H]4F)cc3c2)c2cn[nH]c12 [Example 543, (1S,2S)-N-(5-(7-ethoxy-6-fluoro-5-(methylthio)-1H-indazol-4-yl)pyrazolo[1,5-a]pyridin-2-yl)-2-fluorocyclopropane-1-carboxamide]"
< 200,200 to 1000,< 100,"CSc1c(F)c(N(C)C)c2[nH]ncc2c1-c1ccn2nc(NC(=O)[C@@H]3C[C@@H]3F)cc2c1 [Example 558, (1S,2S)-N-(5-(7-(dimethylamino)-6-fluoro-5-(methylthio)-1H-indazol-4-yl)pyrazolo[1,5-a]pyridin-2-yl)-2-fluorocyclopropane-1-carboxamide]"
